Reference: patent publication US20160122307A1, “PERHYDROQUINOXALINE DERIVATIVES” (DR. AUGUST WOLFF GMBH & CO. KG ARZNEIMITTEL, priority 2013, published 2016)
Read-outs that look alike come from different tables or passages of the source.

How the values were obtained:
[1] = target: T1, Human opiate κ receptors (Homo sapiens, UniProt P41145); test: κ opioid receptor functional assay, [35S]GTPγS binding (assay C); type: biochemical
[2] = target: T1, Human opiate κ receptors; type: binding; design: expressed in transfected cells; host or cells: HEK-293 cell membranes
[3] = test system: arachidonic acid-induced ear inflammation; type: in vivo, mice
[4] = topical, versus vehicle control

T1 sequence (P41145 whole entry): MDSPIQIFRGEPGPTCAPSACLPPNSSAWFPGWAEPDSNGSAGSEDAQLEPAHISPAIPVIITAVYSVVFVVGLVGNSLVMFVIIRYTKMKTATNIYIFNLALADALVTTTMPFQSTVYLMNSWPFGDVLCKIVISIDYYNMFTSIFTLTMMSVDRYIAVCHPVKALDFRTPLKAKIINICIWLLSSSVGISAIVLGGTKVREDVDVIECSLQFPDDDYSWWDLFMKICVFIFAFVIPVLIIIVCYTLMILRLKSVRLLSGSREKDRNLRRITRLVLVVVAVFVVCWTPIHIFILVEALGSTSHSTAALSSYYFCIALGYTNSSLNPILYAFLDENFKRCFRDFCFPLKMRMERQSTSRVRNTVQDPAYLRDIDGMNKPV

SMILES: COC(=O)N1CCN(C(=O)Cc2ccc(Cl)c(Cl)c2)C2C(N3CCC(C(N)=O)C3)CCCC21.Cl (mixture of isomers) [Example 84]
- % activation functional assay at 1 μM [1]: 99%
- EC50 ([1]; read-out: GTPγS EC50): 10 to 100 nM
- % binding at 100 nM [2]: 89%

SMILES: COC(=O)N1CCN(C(=O)Cc2ccc([N+](=O)[O-])cc2)[C@@H]2[C@@H](N3CCCC3)CCC[C@@H]21.Cl (racemic) [Example 4]
- % binding at 100 nM [2]: 43%

SMILES: COC(=O)N1CCN(C(=O)Cc2c[nH]c3ccccc23)[C@@H]2[C@@H](N3CCCC3)CCC[C@@H]21.Cl (racemic) [Example 9]
- % binding at 100 nM [2]: 43%

SMILES: COC(=O)N1CCN(C(=O)Cc2ccc(Cl)c(Cl)c2)[C@@H]2[C@@H](N(C)C)CCC[C@@H]21.Cl (racemic) [Example 17]
- % activation functional assay at 1 μM [1]: 92%
- EC50 ([1]; read-out: GTPγS EC50): < 10 nM
- % binding at 100 nM [2]: 92%
- % binding at 1 μM [2]: 97%

SMILES: Cl.O=C(Cc1ccc(Cl)c(Cl)c1)N1CCN(C(=O)NCc2ccccc2)[C@H]2CCC[C@H](N3CCCC3)[C@H]21 (racemic) [Example 41]
- % activation functional assay at 1 μM [1]: 81%
- EC50 ([1]; read-out: GTPγS EC50): < 10 nM
- % binding at 100 nM [2]: 92%

SMILES: Cl.NCC(=O)N1CCN(C(=O)Cc2ccc(Cl)c(Cl)c2)[C@@H]2[C@@H](N3CCCC3)CCC[C@@H]21 (racemic) [Example 44]
- % binding at 100 nM [2]: 41%

SMILES: CCOC(=O)COC(=O)N1CCN(C(=O)Cc2ccc(Cl)c(Cl)c2)C2C(N3CCCC3)CCCC21.Cl (stereo not shown) [Example 111]
- % activation functional assay at 1 μM [1]: 105%
- EC50 ([1]; read-out: GTPγS EC50): < 10 nM
- % binding at 100 nM [2]: 105%

SMILES: COC(=O)N1CCN(C(=O)Cc2ccc(Cl)c(F)c2)[C@@H]2[C@@H](N3CC[C@H](O)C3)CCC[C@@H]21 [Example 112]
- increase in ear thickness ([3]; mouse, in vivo): dose dependently prevented the increase
- activation at 1 µM ([1]; 0.5 h, read-out: % activation functional assay at 1 μM): 93%
- EC50 ([1]; GTPγS EC50 (nM)): < 10 nM

SMILES: CNC(=O)C(=O)N1CCN(C(=O)Cc2ccc(Cl)c(Cl)c2)[C@@H]2[C@@H](N3CCCC3)CCC[C@@H]21.Cl [Example 118]
- increase in ear thickness [3, 4]: dose dependently prevented the increase
- % activation functional assay at 1 μM [1]: 104%
- EC50 ([1]; read-out: GTPγS EC50): < 10 nM

SMILES: CS(=O)(=O)N1CCN(C(=O)Cc2ccc(Cl)c(F)c2)C2C(N3CCC(O)C3)CCCC21.Cl (stereo not shown) [Example 122]
- increase in ear thickness [3, 4]: dose dependently prevented the increase
- % activation functional assay at 1 μM [1]: 105%
- EC50 ([1]; read-out: GTPγS EC50): < 10 nM

SMILES: CC(C)OC(=O)C(=O)N1CCN(C(=O)Cc2ccc(Cl)c(Cl)c2)[C@@H]2[C@@H](N3CCCC3)CCC[C@@H]21.Cl [Example 123]
- % activation functional assay at 1 μM [1]: 99%
- EC50 ([1]; read-out: GTPγS EC50): < 10 nM
- % binding at 100 nM [2]: 68%

SMILES: Cl.O=C(Cc1ccc(Cl)c(Cl)c1)N1CCN(S(=O)(=O)N2CCCC2)C2CCCC(N3CCC(O)C3)C21 (stereo not shown) [Example 127]
- % activation functional assay at 1 μM [1]: 100%
- EC50 ([1]; read-out: GTPγS EC50): 10 to 100 nM
- % binding at 100 nM [2]: 66%

SMILES: Cl.O=C(Cc1ccc(Cl)c(Cl)c1)N1CCN(S(=O)(=O)c2cn[nH]c2)C2CCCC(N3CCC(O)C3)C21 (stereo not shown) [Example 128]
- % activation functional assay at 1 μM [1]: 95%
- EC50 ([1]; read-out: GTPγS EC50): < 10 nM
- % binding at 100 nM [2]: 92%

SMILES: CN(C)S(=O)(=O)N1CCN(C(=O)Cc2ccc(Cl)c(Cl)c2)C2C(N3CCC(O)C3)CCCC21.Cl (stereo not shown) [Example 129]
- % activation functional assay at 1 μM [1]: 104%
- EC50 ([1]; read-out: GTPγS EC50): < 10 nM
- % binding at 100 nM [2]: 80%

SMILES: Cl.O=C(Cc1ccc(Cl)c(Cl)c1)N1CCN(S(=O)(=O)NCCO)C2CCCC(N3CCC(O)C3)C21 (stereo not shown) [Example 130]
- % activation functional assay at 1 μM [1]: 102%
- EC50 ([1]; read-out: GTPγS EC50): 10 to 100 nM
- % binding at 100 nM [2]: 70%

SMILES: CNS(=O)(=O)N1CCN(C(=O)Cc2ccc(Cl)c(Cl)c2)C2C(N3CCC(O)C3)CCCC21.Cl (stereo not shown) [Example 131]
- % activation functional assay at 1 μM [1]: 104%
- EC50 ([1]; read-out: GTPγS EC50): < 10 nM
- % binding at 100 nM [2]: 78%

SMILES: CCNS(=O)(=O)N1CCN(C(=O)Cc2ccc(Cl)c(Cl)c2)C2C(N3CCC(O)C3)CCCC21.Cl (stereo not shown) [Example 132]
- % activation functional assay at 1 μM [1]: 106%
- EC50 ([1]; read-out: GTPγS EC50): < 10 nM
- % binding at 100 nM [2]: 71%

SMILES: CCCNS(=O)(=O)N1CCN(C(=O)Cc2ccc(Cl)c(Cl)c2)C2C(N3CCC(O)C3)CCCC21.Cl (stereo not shown) [Example 133]
- % activation functional assay at 1 μM [1]: 105%
- EC50 ([1]; read-out: GTPγS EC50): < 10 nM
- % binding at 100 nM [2]: 74%

SMILES: CC(C)NS(=O)(=O)N1CCN(C(=O)Cc2ccc(Cl)c(Cl)c2)[C@@H]2[C@@H](N3CC[C@H](O)C3)CCC[C@@H]21 [Example 134]
- % activation functional assay at 1 μM [1]: 102%
- EC50 ([1]; read-out: GTPγS EC50): < 10 nM
- % binding at 100 nM [2]: 67%

SMILES: O=C(Cc1ccc(Cl)c(Cl)c1)N1CCN(S(=O)(=O)NC2CCCC2)[C@H]2CCC[C@H](N3CC[C@H](O)C3)[C@H]21 [Example 135]
- % activation functional assay at 1 μM [1]: 105%
- EC50 ([1]; read-out: GTPγS EC50): < 10 nM
- % binding at 100 nM [2]: 76%

SMILES: O=C(Cc1ccc(Cl)c(Cl)c1)N1CCN(S(=O)(=O)Cc2ccon2)[C@H]2CCC[C@H](N3CC[C@H](O)C3)[C@H]21 [Example 136]
- % activation functional assay at 1 μM [1]: 108%
- EC50 ([1]; read-out: GTPγS EC50): < 10 nM
- % binding at 100 nM [2]: 96%

SMILES: O=C(Cc1ccc(Cl)c(Cl)c1)N1CCN(S(=O)(=O)N2CCOCC2)[C@H]2CCC[C@H](N3CC[C@H](O)C3)[C@H]21 [Example 137]
- % activation functional assay at 1 μM [1]: 101%
- EC50 ([1]; read-out: GTPγS EC50): < 10 nM
- % binding at 100 nM [2]: 71%

SMILES: O=C(Cc1ccc(Cl)cc1)N1CCN(S(=O)(=O)Cc2ccon2)[C@H]2CCC[C@H](N3CC[C@H](O)C3)[C@H]21 [Example 146]
- % activation functional assay at 1 μM [1]: 103%
- EC50 ([1]; read-out: GTPγS EC50): < 10 nM
- % binding at 100 nM [2]: 76%

SMILES: O=C(Cc1ccc(Cl)c(F)c1)N1CCN(S(=O)(=O)Cc2ccon2)[C@H]2CCC[C@H](N3CC[C@H](O)C3)[C@H]21 [Example 147]
- % activation functional assay at 1 μM [1]: 105%
- EC50 ([1]; read-out: GTPγS EC50): < 10 nM
- % binding at 100 nM [2]: 88%

SMILES: O=C(Cc1ccc(F)c(Cl)c1)N1CCN(S(=O)(=O)Cc2ccon2)[C@H]2CCC[C@H](N3CC[C@H](O)C3)[C@H]21 [Example 148]
- % activation functional assay at 1 μM [1]: 93%
- EC50 ([1]; read-out: GTPγS EC50): < 10 nM
- % binding at 100 nM [2]: 92%

SMILES: O=C(Cc1ccc(F)c(F)c1)N1CCN(S(=O)(=O)Cc2ccon2)[C@H]2CCC[C@H](N3CC[C@H](O)C3)[C@H]21 [Example 149]
- % activation functional assay at 1 μM [1]: 97%
- EC50 ([1]; read-out: GTPγS EC50): < 10 nM
- % binding at 100 nM [2]: 81%

SMILES: COC(=O)N1CCN(C(=O)Cc2ccc(F)c(Cl)c2)[C@@H]2[C@@H](N3CC[C@H](F)C3)CCC[C@@H]21 [Example 150]
- % activation functional assay at 1 μM [1]: 92%
- EC50 ([1]; read-out: GTPγS EC50): < 10 nM
- % binding at 100 nM [2]: 97%
